In ChEMBL document CHEMBL5131572, “Identification of a Potent, Selective, and Brain-Penetrant Rho Kinase Inhibitor and its Activity in a Mouse Model of Huntington's Disease” (J Med Chem, 2022):
Values after ≈ are worked out from the molar mass of the structure shown.

Key:
[1] = Lipophilicity, logP of compound; format: physicochemical; details: octanol/water
[2] = target: T1, cGMP-dependent protein kinase 1 (Homo sapiens, UniProt Q13976); assay: Inhibition of full length recombinant N-terminal GST-tagged human PKG expressed in baculovirus infected Sf9 insect cells using RSK as substrate preincubated for 15 mins followed by substrate addition and measured after 30 mins in presence of ATP by ADP Glo kinase assay
T1 sequence (Q13976 whole entry): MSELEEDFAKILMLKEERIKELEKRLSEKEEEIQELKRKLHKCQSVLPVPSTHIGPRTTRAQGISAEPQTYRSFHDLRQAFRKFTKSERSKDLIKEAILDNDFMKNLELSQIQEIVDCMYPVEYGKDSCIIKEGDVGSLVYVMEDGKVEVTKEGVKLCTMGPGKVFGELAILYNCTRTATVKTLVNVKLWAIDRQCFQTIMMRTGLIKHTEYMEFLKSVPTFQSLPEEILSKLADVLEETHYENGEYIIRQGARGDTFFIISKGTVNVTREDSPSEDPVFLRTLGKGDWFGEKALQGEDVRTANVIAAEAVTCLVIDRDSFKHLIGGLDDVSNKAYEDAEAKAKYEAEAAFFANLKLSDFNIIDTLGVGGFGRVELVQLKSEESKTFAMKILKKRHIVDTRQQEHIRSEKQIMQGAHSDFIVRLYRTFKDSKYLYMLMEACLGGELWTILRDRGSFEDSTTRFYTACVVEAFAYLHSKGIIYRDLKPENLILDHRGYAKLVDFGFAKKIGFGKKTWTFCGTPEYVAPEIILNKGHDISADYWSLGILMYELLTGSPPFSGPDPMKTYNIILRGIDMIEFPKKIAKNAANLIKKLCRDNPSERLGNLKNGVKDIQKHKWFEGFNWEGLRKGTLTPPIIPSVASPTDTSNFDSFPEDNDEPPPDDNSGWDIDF

[3] = Inhibition of ROCK in rat A7R5 cells assessed as cofilin serine 3 phosphorylation incubated for 1 hr by ICW assay; details: A7R5, 1 h
[4] = Distribution coefficient, logD of compound by chromatographic method; format: physicochemical; details: octanol/water
[5] = tested on: MDR1; assay: in vitro; details: dog, MDCK-MDR1
Description: Efflux ratio of apparent permeability across basolateral to apical side to apical to basolateral side in MDCK-MDR1 cells at 10 uM measured after 1 hr by LC-MS/MS analysis

[6] = target: Rho-associated protein kinase 2 (Homo sapiens, UniProt O75116); assay: Inhibition of recombinant N-terminal GST-tagged human ROCK2 (5 to 554 residues) expressed in baculovirus infected Sf9 cells using S6K as substrate incubated for 30 mins in presence of ATP by ADP Glo kinase assay
Rho-associated protein kinase 2, sequence (O75116 whole entry, the tested form may be a part): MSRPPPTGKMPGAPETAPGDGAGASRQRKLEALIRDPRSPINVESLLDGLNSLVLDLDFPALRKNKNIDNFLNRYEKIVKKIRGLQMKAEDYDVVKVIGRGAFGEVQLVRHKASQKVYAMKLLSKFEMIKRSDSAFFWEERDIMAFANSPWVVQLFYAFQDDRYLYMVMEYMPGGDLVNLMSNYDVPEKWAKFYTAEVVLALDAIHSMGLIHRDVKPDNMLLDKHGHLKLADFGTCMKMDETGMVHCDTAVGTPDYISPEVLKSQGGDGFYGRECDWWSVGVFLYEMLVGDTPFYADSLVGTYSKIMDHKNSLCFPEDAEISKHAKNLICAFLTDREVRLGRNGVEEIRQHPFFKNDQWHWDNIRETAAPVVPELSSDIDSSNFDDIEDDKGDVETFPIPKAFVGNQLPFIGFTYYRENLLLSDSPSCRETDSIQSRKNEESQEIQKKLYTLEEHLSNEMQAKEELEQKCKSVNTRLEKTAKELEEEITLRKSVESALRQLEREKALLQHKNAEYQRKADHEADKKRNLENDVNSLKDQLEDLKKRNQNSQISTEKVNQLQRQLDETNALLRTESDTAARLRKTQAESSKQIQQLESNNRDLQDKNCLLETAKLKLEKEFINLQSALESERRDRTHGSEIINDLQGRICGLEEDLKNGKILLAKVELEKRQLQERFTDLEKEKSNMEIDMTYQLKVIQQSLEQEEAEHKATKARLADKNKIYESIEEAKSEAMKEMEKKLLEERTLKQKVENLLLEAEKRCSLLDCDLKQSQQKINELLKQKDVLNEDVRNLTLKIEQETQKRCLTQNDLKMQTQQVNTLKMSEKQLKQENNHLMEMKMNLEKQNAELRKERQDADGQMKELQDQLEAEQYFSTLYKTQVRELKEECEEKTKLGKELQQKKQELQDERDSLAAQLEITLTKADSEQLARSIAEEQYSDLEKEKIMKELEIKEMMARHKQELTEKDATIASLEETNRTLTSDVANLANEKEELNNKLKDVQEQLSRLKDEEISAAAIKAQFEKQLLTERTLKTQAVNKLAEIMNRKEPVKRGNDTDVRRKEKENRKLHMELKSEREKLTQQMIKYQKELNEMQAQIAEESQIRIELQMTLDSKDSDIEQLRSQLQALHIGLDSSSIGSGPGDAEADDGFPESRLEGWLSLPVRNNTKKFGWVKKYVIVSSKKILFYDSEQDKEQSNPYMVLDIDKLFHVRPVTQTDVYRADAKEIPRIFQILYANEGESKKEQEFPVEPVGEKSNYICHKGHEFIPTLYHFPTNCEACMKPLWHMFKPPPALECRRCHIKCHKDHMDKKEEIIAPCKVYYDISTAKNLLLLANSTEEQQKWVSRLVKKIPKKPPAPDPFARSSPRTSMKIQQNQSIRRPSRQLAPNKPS

[7] = Kinetic solubility of the compound in pH 7.4 PBS buffer incubated for 2 hrs using orbital shaker by LC-UV mass spectrometry; format: physicochemical; details: read-out: Kinetic_solubility
[8] = Metabolic stability in mouse liver microsomes assessed as intrinsic clearance at 1 uM measured upto 40 mins in presence of NADPH by LC-MS/MS analysis; format: ADME, Microsome; details: read-out: CLH
[9] = Apparent permeability in MDCK-MDR1 cells at 10 uM after 1 hr by LC-MS/MS analysis; format: ADME, cell-based, Canis lupus familiaris; details: dog
[10] = Ratio of unbound AUC in C57BL/6 mouse brain at 10 mg/kg, po to IC50 for Inhibition of ROCK in rat A7r5 cells; format: organism-based; details: in vivo
[11] = Oral bioavailability in C57BL/6 mouse at 10 mg/kg; format: ADME, organism-based; details: in vivo
[12] = Clearance in C57BL/6 mouse plasma at 2 mg/kg, iv; format: ADME, organism-based
[13] = Hepatic extraction ratio in C57BL/6 mouse at 2 mg/kg, iv; format: ADME, organism-based; details: in vivo, read-out: ERH
[14] = Unbound AUC in C57BL/6 mouse plasma at 10 mg/kg, po by LC-MS/MS analysis; format: ADME, organism-based; details: in vivo
[15] = target: T2, Cytochrome P450 1A2 (Homo sapiens, UniProt P05177); assay: Time dependent inhibition of CYP1A2 in pooled human liver microsomes using […] as substrate preincubated for 30 mins in presence of NADPH followed by substrate addition and measured after 10 mins by LC-MS/MS analysis; format: ADME, Microsome
T2 sequence (P05177 whole entry): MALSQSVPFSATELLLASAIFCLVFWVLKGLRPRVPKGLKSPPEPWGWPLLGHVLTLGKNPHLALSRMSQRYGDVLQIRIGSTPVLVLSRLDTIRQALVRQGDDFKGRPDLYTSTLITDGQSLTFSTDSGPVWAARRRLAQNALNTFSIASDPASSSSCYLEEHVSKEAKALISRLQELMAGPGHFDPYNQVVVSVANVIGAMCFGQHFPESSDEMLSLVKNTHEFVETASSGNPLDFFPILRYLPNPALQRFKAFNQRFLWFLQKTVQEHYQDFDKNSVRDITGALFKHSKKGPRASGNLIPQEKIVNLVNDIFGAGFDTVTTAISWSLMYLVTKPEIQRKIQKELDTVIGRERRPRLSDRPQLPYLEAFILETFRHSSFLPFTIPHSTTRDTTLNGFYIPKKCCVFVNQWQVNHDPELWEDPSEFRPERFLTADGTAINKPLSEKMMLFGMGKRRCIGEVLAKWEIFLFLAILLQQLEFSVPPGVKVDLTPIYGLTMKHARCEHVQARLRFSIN

[16] = Unbound AUC in C57BL/6 mouse brain at 10 mg/kg, po by LC-MS/MS analysis; format: ADME, organism-based; details: in vivo

Compound: C[C@@H]1CN(c2ccncc2F)CCN1C(=O)N[C@H](C)c1cccn2nccc12
- logP [1]: 2.1
- IC50 [2]: 6650 nM
- IC50 [3]: 14 nM
- chromatographic logD [4]: 1.6
- efflux ratio at 1 h, 10 µM [5]: 3.7
- IC50 [6]: 2 nM
- solubility kinetic at 2 h [7]: > 200 µM
- CLint scaled at 1 µM [8]: 169 mL/min/kg
- Papp at 1 h, 10 µM [9]: 104 ×10⁻⁶ cm/s

Compound: CS(=O)(=O)Nc1cccc(CC(=O)Nc2cc(-c3ccnc(F)c3)cs2)c1
- logP [1]: 3.45
- solubility kinetic at 2 h [7]: 77 µM (≈ 31.2 µg/mL)

Compound: COc1cccc([C@@H](C)NC(=O)[C@@H]2CC[C@@H](c3ccncc3)C[C@@H]2C)c1
- IC50 [3]: > 5000 nM
- IC50 [6]: 851 nM
- solubility kinetic at 2 h [7]: 11 µM (≈ 3.88 µg/mL)

Compound: COc1cccc([C@@H](C)NC(=O)N2CCN(c3ccncc3F)CC2)c1
- IC50 [2]: 1830 nM
- IC50 [3]: 126 nM
- IC50 [6]: 7 nM

Compound: COc1cccc([C@@H](C)NC(=O)c2ccc(-c3ccnc(F)c3)cn2)c1
- IC50 [3]: 1030 nM
- IC50 [6]: 50 nM

Compound: C[C@@H](N)[C@H]1CC[C@H](C(=O)Nc2ccncc2)CC1 [Y-27632]
- logP [1]: 0.62
- IC50 [3]: 3030 nM
- chromatographic logD [4]: 1.03

Compound: COc1cccc([C@@H](C)NC(=O)N2CCN(c3ccncc3F)C[C@H]2C)c1F
- logP [1]: 2.6
- IC50 [2]: 50900 nM
- IC50 [3]: 323 nM
- chromatographic logD [4]: 2.3
- efflux ratio at 1 h, 10 µM [5]: 1.3
- solubility kinetic at 2 h [7]: 150 µM (≈ 58.6 µg/mL)
- CLint scaled at 1 µM [8]: 79 mL/min/kg
- Papp at 1 h, 10 µM [9]: 79.7 ×10⁻⁶ cm/s

Compound: COc1cccc([C@@H](C)NC(=O)N2CCN(c3ccncc3)CC2)c1
- IC50 [3]: 1460 nM
- IC50 [6]: 4790 nM

Compound: COc1cccc([C@@H](C)NC(=O)N2CCN(c3ccnc(F)c3)C[C@H]2C)c1
- Ratio [10]: 0.2
- bioavailability [11]: 36%
- clearance [12]: 28.3 mL/min/kg
- IC50 [2]: 18900 nM
- IC50 [3]: 122 nM
- hepatic extraction ratio [13]: 0.31
- fAUC [14]: 100 nM·kg·h/mg
- efflux ratio at 1 h, 10 µM [5]: 2.8
- IC50 [15]: > 10000 nM
- IC50 [6]: 6 nM
- solubility kinetic at 2 h [7]: 170 µM (≈ 63.3 µg/mL)
- CLint scaled at 1 µM [8]: 103 mL/min/kg
- fAUC [16]: 30 nM·kg·h/mg
- Papp at 1 h, 10 µM [9]: 58.1 ×10⁻⁶ cm/s

Compound: COc1cccc([C@@H](C)NC(=O)N2CC[C@@H](c3ccncc3)C[C@@H]2C)c1
- IC50 [2]: 53700 nM
- IC50 [3]: 4930 nM
- IC50 [6]: 1300 nM

Compound: COc1cccc([C@@H](C)NC(=O)N2CC[C@H](c3ccncc3)C[C@H]2C)c1
- IC50 [2]: 23000 nM
- IC50 [3]: 71 nM
- IC50 [6]: 9 nM

Compound: COc1cccc([C@@H](C)NC(=O)[C@H]2CC[C@H](c3ccncc3)CC2)c1
- IC50 [2]: 5030 nM
- IC50 [3]: 974 nM
- IC50 [6]: 98 nM

Compound: COc1ccc(F)c([C@@H](C)NC(=O)N2CCN(c3ccncc3F)C[C@H]2C)c1
- IC50 [2]: 13100 nM
- IC50 [3]: 108 nM
- IC50 [6]: 7 nM

Compound: COc1cccc(CC(=O)Nc2cc(-c3ccnc(F)c3)cs2)c1
- logP [1]: 4.53
- IC50 [3]: 830 nM
- chromatographic logD [4]: 2.83
- IC50 [6]: 15 nM
- solubility kinetic at 2 h [7]: 17 µM (≈ 5.82 µg/mL)

Compound: COc1cccc([C@@H](C)NC(=O)N2CCN(c3ccncn3)C[C@H]2C)c1
- IC50 [2]: 36500 nM
- IC50 [3]: 264 nM
- IC50 [6]: 23 nM
